Laboratory results published in patent publication US8206593B2, “Microfluidic chemical reaction circuits” (Fluidigm Corporation, priority 2004, dated 2012).

Test system: tumor-bearing mouse (M-MSV/M-MuLV rhabdomyosarcoma)
Test: microPET/microCT imaging of a tumor-bearing mouse injected with [18F]FDG
Format: in vivo
Conditions: 272 microCi via tail vein; 1-h uptake and non-specific clearance; imaged 15 minutes; FDG produced in a microfluidic chip
Text: Mouse Model. The tumor model used was a strongly immunogenic, non-metastasizing retrovirally-induced rhabdomyosarcoma (M-MSV/M-MuLV) (Fletcher et al., 2002, Tetrahedron 58:4735). MSV is a replication-defective, acutely transforming retrovirus carried with helper activity provided by M-MuLV, which encodes the gag, pol, and env components that are necessary for cell infection and replication (Worz et al., 2001, Chemical Engineering Science 56:1029). Rhabdomyosarcomas develop at the intramuscular inoculation site after a short latency period (7-10 days) and regress over a period of 4-5 wk following the induction of a strong immune reaction in immunocompetent adult mice. These lesions were characterized by a mixture of virus-infected myocytes and a large infiltrate of lymphocytes, granulocytes, and macrophages. Both cellular and humoral immune responses induced are dependent on presentation by H-2 D^b alleles (Watts et al., 2003, Current Opinion in Chemical Biology 7:380). Rejection was mediated by CD8+ cytolytic T cells, which recognize peptides from the gag and env proteins of M-MuLV, and requires help from CD4+ T cells (Kobayashi et al., 2004, Science 304:1305; Chan et al., 2003, Nano Letters 3:199; Kawaguchi et al., 2005, Angewandte Chemie-International Edition 44:2413)
Mouse imaging. The tumor bearing mouse was injected with 272 microCi of FDG via tail vein. […]

Substance: 2-deoxy-2-[^18F]fluoro-D-glucose [[^18F]FDG]
- Organs visible in microPET/microCT image: bladder, kidneys, heart, tumor and two lymph nodes
